Experimental data reported in US20250027041A1, “COMPOSITION FOR INDUCING TRANSDIFFERENTIATION AND STEM CELLS TREATED THEREWITH” (YJ CERAPEUTICS INC., priority 2021, published 2025).

Tests used:
[1] = system: human UCB-MSCs; experiment: Tuj1 immunochemical assay with CtBP inhibitors; type: cell-based
Protocol: To determine CtBP1-mediated ciNSC5 differentiation by YJ102 in human UCB-MSCs, a CTBP1 mechanism by treatment with NSC95397 or 4-methylthio-2-oxobutanoate (MTOB) was analyzed by immunochemical assay. Specifically, UCB-MSCs were dispensed at 2.1×10^4 cells/well in a 12-well plate containing an 18 mm cover glass (circular) (a DMSO control group was dispensed at 3.5×10^3 cells/well). […] The culture medium was removed, washed with PBS, and fixed with 4% paraformaldehyde at room temperature for 10 minutes. After washed three times with PBS, the cells were permeabilized with PBS-T containing 0.5% Triton X-100 for 10 minutes, washed with PBS-T three times for 10 minutes each, and then blocked with a blocking solution (PBS-T containing 5% BSA and 5% goat serum) for 1 hour. Thereafter, the cells were treated with anti-Tuj1 antibody (Cat. 801201, BioLegend) diluted 1/5000 in a blocking solution and incubated at 4° C. overnight. The next day, the cells were washed 10 times for 10 minutes each with PBS-T, and then treated with anti-mouse IgG-cy3 (Cat. 111-165-003, Jackson ImmunoResearch) diluted 1/2000 in a blocking solution, and incubated for 1 hour in dark conditions. Next, the cells were washed 10 times for 10 minutes each with PBS-T, mounted with a mounting solution containing DAPI, and then observed with a confocal microscope.

[2] = biological target: T1, CtBP1 (Homo sapiens, UniProt Q13363); experiment: Immunoprecipitation, CtBP1 oligomerization in UCB-MSCs; type: cell-based; design: expressed in transfected cells; host or cells: human UCB-MSC; settings: MTOB 300 μM
Protocol: To determine the effect of YJ102 on the regulation of oligomerization of C-terminal Binding Proteins (CtBPs) in human UCB-MSCs, immunoprecipitation analysis was performed. Specifically, UCB-MSCs were dispensed at 4×10^5 cells/ml in a 60 mm culture dish, and the next day, FLAG-CtBP1, HA-CtBP1, FLAG-CtBP2, and HA-CtBP1 were transfected into cells using 4 μl jetPRIME. Thereafter, the cells were treated with YJ102 (stock 30 mM in DMSO) and MTOB (stock 300 mM in DMSO) at 20 μM and 300 μM, respectively (Table 1). After 48 hours of transfection, proteins were extracted in the same manner as in Example 1-1. Protein G agarose slurry was washed with PBS and blocked with 1 ml of 1% BSA, washed with PBS, and added with 1 μg of anti-HA antibody diluted with 1.5 ml of PBS and incubated at 4° C. for 2 hours. Thereafter, the cells were centrifuged at 3,000×g for 2 minutes to remove the supernatant, washed with an IP150 buffer two times, added with 1 μg of the protein extracted above, and incubated at 4° C. overnight. After incubation, the cells were centrifuged at 3,000×g for 2 minutes to remove the supernatant, washed with PBS three times, added with 50 μl of 1 mg/ml HA peptide diluted with PBS, and incubated at room temperature for 10 minutes. […]

[3] = system: UCB-MSCs; experiment: Tuj1 immunochemical assay, direct conversion of UCB-MSCs into ciNSC5; type: cell-based, human; settings: 30 μM, 5 days; for expression of Tuj1: UCB-MSC
Protocol: Immunochemical assay was performed to confirm whether UCB-MSCs were transdifferentiated into ciNSC5, Tuj1-positive neural progenitor cells, by the compounds of the present invention, YJ101, YJ102, and YJ103. Specifically, UCB-MSCs were dispensed at 2.1×10^4 cells/well in a 12-well plate containing an 18 mm cover glass (a DMSO control group was dispensed at 3.5×10^3 cells/well). […] The culture medium was removed, washed with PBS, and then fixed with 4% paraformaldehyde at room temperature for 10 minutes. After washed three times with PBS, the cells were permeabilized with PBS-T containing 0.5% Triton X-100 for 10 minutes, washed with PBS-T three times for 10 minutes each, and then blocked with a blocking solution (PBS-T containing 5% BSA and 5% goat serum) for 1 hour. Thereafter, the cells were treated with anti-Tuj1 antibody (Cat. 801201, BioLegend) diluted 1/5000 in a blocking solution and incubated at 4° C. overnight. The next day, the cells were washed 10 times for 10 minutes each with PBS-T, and then treated with anti-mouse IgG-FITC diluted 1/500 in a blocking solution, and incubated for 1 hour in dark conditions. Next, the cells were washed 10 times for 10 minutes each with PBS-T, mounted with a mounting solution containing DAPI, and then observed with a confocal microscope.

[4] = system: AD-MSC; experiment: Tuj1 immunochemical assay, AD-MSC; type: cell-based, human; settings: 10, 20 or 30 μM, 5 days
Protocol: (§1) To determine whether transdifferentiation into ciNSC5, neural progenitor cells, occurred similarly even in MSCs of different origins when human UCB-MSCs were treated with YJ101, YJ102, or YJ103 for 5 days, the expression of neuronal markers in differentiated ciNSC5 was confirmed by immunochemical assay using MSCs from human adipose-derived mesenchymal stem cells (AD-MSCs), human bone marrow-derived mesenchymal stem cells ([…]) and human umbilical cord blood-derived mesenchymal stem cells (UCB-MSCs; Promo Cells). Specifically, AD-MSC (StemPro™ Human Adipose-Derived Stem Cell, Gibco, Passage #6) was incubated in a MesenPRO RS™ medium, BM-MSC (ATCC, Passage #6) was incubated in a Mesenchymal Stem Cell Basal Medium for Adipose, Umbilical and Bone Marrow-derived MSC (Cat. PCS-500-030, ATCC) medium, and UCB-MSC (Promo Cell, Passage #6) was incubated in a CellCor™ CD MSC (Cat. YSP001, Xell Therapeutics) medium, and then dispensed at 2.1×10^4 cells/well in a 12-well plate with an 18 mm cover glass (circular) (DMSO control group was dispensed at 3.5×10^3 cells/well). […] The culture medium was removed, washed with PBS, and then fixed with 4% paraformaldehyde at room temperature for 10 minutes. After washed three times with PBS, the cells were permeabilized with PBS-T containing 0.5% Triton X-100 for 10 minutes, washed with PBS-T three times for 10 minutes each, and then blocked with a blocking solution (PBS-T containing 5% BSA and 5% goat serum) for 1 hour. Thereafter, the cells were treated with anti-Tuj1 antibody (Cat. 801201, BioLegend) diluted 1/5000 in a blocking solution and incubated at 4° C. overnight. The next day, the cells were washed 10 times for 10 minutes each with PBS-T, and then treated with anti-mouse IgG-cy3 diluted 1/2000 in a blocking solution, and incubated for 1 hour in dark conditions. Next, the cells were washed 10 times for 10 minutes each with PBS-T, mounted with a mounting solution containing DAPI, and then observed with a confocal microscope.

[5] = system: BM-MSC; experiment: Tuj1 immunochemical assay, BM-MSC; type: cell-based, human; settings: 10, 20 or 30 μM, 5 days
Protocol: as §1

[6] = system: UCB-MSC (Promo Cell); experiment: Tuj1 immunochemical assay, UCB-MSC (Promo Cell); type: cell-based, human; settings: 10, 20 or 30 μM, 5 days
Protocol: as §1

[7] = system: UCB-MSCs; experiment: CellTiter-Glo proliferation assay; type: cell-based, human; settings: 10, 20, or 40 μM; 3 or 5 days
Protocol: Thereafter, 100 μl of a CellTiter-Glo reagent prepared by mixing a CellTiter-Glo Buffer with a CellTiter-Glo substrate was added to each well of a 96-well plate, covered with a plate cover, and incubated at room temperature for 30 minutes.

[8] = biological target: T1, CtBP1; experiment: DARTS assay, CtBP1; type: binding; design: expressed in transfected cells; host or cells: human UCB-MSC (Kang Stem Cell), lysate; settings: for overexpressed CtBP1 (flag-CtBP1) protection from degradation by pronase (DARTS): FLAG-CtBP1 transfected UCB-MSC lysate, YJ101 (20 or M), YJ102 (20 or 30 μM), YJ103 (20 or 40 μM); for binding to CtBP1: human UCB-MSC
Protocol: To identify proteins binding to compounds of the present invention, YJ101 (Chemical Formula 1), YJ102 (Chemical Formula 2), and YJ103 (Chemical Formula 3), in human umbilical cord blood-derived mesenchymal stem cells (UCB-MSCs), DART assay was performed. Specifically, UCB-MSCs (Kang Stem Cell, Passage #6) were dispensed into a 100 mm culture dish and incubated in a KSB-3 medium (Cat. K3901, Kang Stem Cell) containing 10% FBS (Cat. 16000044), and then collected and washed with PBS. Thereafter, the cells were added with an IP50 lysis buffer [50 mM Tris-HCl (pH 7.4), 150 mM NaCl, 2 mM MgCl2, and 0.1% NP40], sonicated, and centrifuged at 13,000×g for 10 minutes at 4° C. to obtain the supernatant. The supernatant was added with 1/10 volume of 10×TNC buffer [500 mM Tris-HCl (pH 8.0), 500 mM NaCl, and 100 mM CaCl2)], and protein concentration was measured using a Bradford method. Thereafter, 9 μl of a cell lysate and 1 μl of YJ101 (20 or M), YJ102 (20 or 30 μM), or YJ103 (20 or 40 μM) were mixed in a microcentrifuge tube and incubated at room temperature for 1 hour. A control group was treated with 1 μl of DMSO. After incubation, 1 μl (1 mg/ml) of Pronase (Cat. 10 165 921 001, Roche) diluted to 1 mg/ml using a 1×TNC buffer was added to the microcentrifuge tube and incubated at 37° C. for 15 minutes. After incubation, ⅕ volume of a 5×SDS-PAGE loading buffer was added, heated at 100° C. for 5 minutes, and then SDS-PAGE and Coomassie blue staining were performed. In addition, UCB-MSCs were dispensed at 4×10^5 cells/ml in a 60 mm culture dish, and after 24 hours, 4 μg of FLAG-CtBP1 or FLAG-CtBP2 DNA was transfected using 4 μl of jetPRIME. After 48 hours, the cells were collected, and proteins were extracted and quantified using the same method as above. DARTS assay was performed with the cell lysate of CtBP1 and Y102 labeled with FLAG, and Western blot assay was performed with a flag antibody (Cat. F3165, Sigma).

YJ102-induced oligomerization of CtBP1 [2] | overexpressed CtBP1 (flag-CtBP1) protection from degradation by pronase (DARTS) [8] | binding to CtBP1 [8] | SMILES | expression of Tuj1 in YJ102-treated ciNSC5 ([1]; 300 μM MTOB with 30 μM YJ102, 5 days) | expression of Tuj1 in YJ102-treated ciNSC5 ([1]; 10 μM NSC95397 with 30 μM YJ102, 5 days) | direct conversion from UCB-MSCs to ciNSC5 [3] | expression of Tuj1 [3] | expression of Tuj1 [4] | expression of Tuj1 [5] | expression of Tuj1 [6] | cell proliferation (CellTiter-Glo) [7]
inhibited |  |  | CSCCC(=O)C(=O)O [MTOB, 4-methylthio-2-oxobutanoate, reference compound] | reduced |  |  |  |  |  |  | 
 |  |  | O=C1C(SCCO)=C(SCCO)C(=O)c2ccccc21 [NSC95397] |  | reduced |  |  |  |  |  | 
 | protected | bound to CtBP1 | CCc1ccc(N(C(=O)COC(C)=O)c2nc3cc(Cl)ccc3o2)cc1 [YJ101] |  |  | induced direct conversion | increased | increased | increased | increased | reduced cell proliferation in a concentration-dependent manner
 | protected | bound to CtBP1 | CCc1ccc(N(C(=O)CCC(=O)OC)c2nc3cc(Cl)ccc3o2)cc1 [YJ103] |  |  | induced direct conversion | increased | increased | increased | increased | reduced cell proliferation in a concentration-dependent manner
